Results as given in patent US11548871B2, “Triazole carbamate pyridyl sulfonamides as LPA receptor antagonists and uses thereof” (Gilead Sciences, Inc., priority 2019, dated 2023).

Biological target: human LPAR1 (Homo sapiens, UniProt Q92633)
Test: LPAR1 intracellular calcium mobilization assay (antagonist mode)
Description: In vitro LPAR1 activity was measured in an intracellular calcium mobilization assay.
Prior to testing cell media were aspirated from the cells and replaced with 20 μL Calcium Dye Loading Buffer (DiscoverX Calcium NoWash^PLUS Assay Kit cat #90-0091) and 2.5 mM Probenecid (Sigma Aldrich cat #P8761, prepared fresh) in HBSS/20 mM Hepes for 60 min at 37° C.
For agonist dose curves, cells were removed from the incubator after dye loading and 10 μL HBSS/20 mM Hepes including 3× vehicle was added. Cells were incubated for 30 min at room temperature in the dark to equilibrate plate temperatures. An intermediate LPA dilution series was prepared in assay buffer to generate 4× stock. Calcium mobilization was monitored on a FLIPR Tetra (MDS, San Jose, Calif.) for 2 min and 10 μL 4×LPA in HBSS/20 mM Hepes was added to the cells 5 s into the assay.
An intermediate antagonist dilution series was prepared as 3× samples in assay buffer. After dye loading, cells were removed from the incubator and 10 μL 3× antagonist was added. Cells were incubated for 30 min at room temperature in the dark to equilibrate plate temperatures. The final vehicle (DMSO) concentration was 1%. Compound antagonist activities was measured on a FLIPR Tetra. Calcium mobilization was monitored for 2 min and 10 μL EC80 agonist in HBSS/20 mM Hepes was added to the cells 5 s into the assay. Compound activity was analyzed using CBIS data analysis suite (ChemInnovation Software, San Diego, Calif.).

Chain of human LPAR1 (Q92633 whole entry): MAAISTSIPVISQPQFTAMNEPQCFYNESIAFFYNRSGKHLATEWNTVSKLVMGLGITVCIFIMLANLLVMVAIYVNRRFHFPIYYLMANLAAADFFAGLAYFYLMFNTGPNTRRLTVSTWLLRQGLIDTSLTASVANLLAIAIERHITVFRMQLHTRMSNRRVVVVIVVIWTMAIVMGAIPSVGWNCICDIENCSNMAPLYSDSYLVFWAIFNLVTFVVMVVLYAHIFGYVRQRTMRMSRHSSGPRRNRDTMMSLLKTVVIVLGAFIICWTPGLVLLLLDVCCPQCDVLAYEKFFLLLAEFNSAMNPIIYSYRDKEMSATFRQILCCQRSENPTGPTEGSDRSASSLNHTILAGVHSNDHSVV

`Cc1nc(-c2nnn(C)c2NC(=O)O[C@H](C)c2cccc(F)c2)ccc1NS(=O)(=O)C1CCC1` [Compound 104, (R)-1-(3-fluoro-phenyl)ethyl(4-(5-(cyclobutane-sulfonamido)-6-methylpyridin-2-yl)-1-methyl-1H-1,2,3-triazol-5-yl)carbamate] and `Cc1nc(-c2nnn(C)c2NC(=O)O[C@H](C)c2cccc(F)c2)ccc1NS(=O)(=O)C1CC1` [Compound 106, (R)-1-(3-fluoro-phenyl)ethyl(4-(5-(cyclopropane-sulfonamido)-6-methylpyridin-2-yl)-1-methyl-1H-1,2,3-triazol-5-yl)carbamate] are within 1.5-fold of each other in EC50: 434 nM for the first, 313 nM for the second.

First: Cc1nc(-c2nnn(C)c2NC(=O)O[C@H](C)c2cccc(F)c2)ccc1NS(=O)(=O)C(C)C [Compound 105, (R)-1-(3-fluoro-phenyl)ethyl(1-methyl-4-(6-methyl-5-((1-methylethyl)sulfonamido)pyridin-2-yl)-1H-1,2,3-triazol-5-yl)carbamate]
Second: Cc1nc(-c2nnn(C)c2NC(=O)O[C@H](C)c2cccc(F)c2)ccc1NS(=O)(=O)C1COC1 [Compound 109, (R)-1-(3-fluoro-phenyl)ethyl (1-methyl-4-(6-methyl-5-(oxetane-3-sulfonamido)pyridin-2-yl)-1H-1,2,3-triazol-5-yl)carbamate]
The EC50 of the first is 2.5-fold lower: 278 nM for the first, 705 nM for the second.

Compared with `Cc1ncc(S(=O)(=O)Nc2ccc(-c3nnn(C)c3NC(=O)O[C@H](C)c3cccc(F)c3)nc2C)s1` [Compound 107, (R)-1-(3-fluoro-phenyl)ethyl (1-methyl-4-(6-methyl-5-((2-methylthiazole)-5-sulfonamido)pyridin-2-yl)-1H-1,2,3-triazol-5-yl)carbamate], `COC1CN(S(=O)(=O)Nc2ccc(-c3nnn(C)c3NC(=O)O[C@H](C)c3cccc(F)c3)nc2C)C1` [Compound 108, (R)-1-(3-fluoro-phenyl)ethyl (4-(5-((3-methoxy-azetidine)-1-sulfonamido)-6-methylpyridin-2-yl)-1-methyl-1H-1,2,3-triazol-5-yl)carbamate] is 8.9-fold higher in EC50: 1120 nM for the first, 10000 nM for the second.

Going from `C[C@@H](OC(=O)Nc1c(-c2ccc(NS(C)(=O)=O)cn2)nnn1C)c1cc(Cl)sc1Cl` [Compound 110, (R)-1-(2,5-dichlorothiophen-3-yl)ethyl (1-methyl-4-(5-(methylsulfonamido)pyridin-2-yl)-1H-1,2,3-triazol-5-yl)carbamate] to `C[C@@H](OC(=O)Nc1c(-c2ccc(NS(C)(=O)=O)cn2)nnn1C)c1cnsc1Cl` [Compound 118, (R)-1-(5-chloroisothiazol-4-yl)ethyl (1-methyl-4-(5-(methylsulfonamido)pyridin-2-yl)-1H-1,2,3-triazol-5-yl)carbamate], the EC50 rises from 12.3 nM to 57.8 nM (4.7-fold). The first is the more potent here.

Going from `C[C@@H](OC(=O)Nc1c(-c2ccc(NS(C)(=O)=O)cn2)nnn1C)c1cc(Cl)cnc1F` [Compound 111, (R)-1-(5-chloro-2-fluoropyridin-3-yl)ethyl (1-methyl-4-(5-(methylsulfonamido)pyridin-2-yl)-1H-1,2,3-triazol-5-yl)carbamate] to `Cc1ncc(Cl)cc1[C@@H](C)OC(=O)Nc1c(-c2ccc(NS(C)(=O)=O)cn2)nnn1C` [Compound 113, (R)-1-(5-chloro-2-methylpyridin-3-yl)ethyl (1-methyl-4-(5-(methylsulfonamido)pyridin-2-yl)-1H-1,2,3-triazol-5-yl)carbamate], the EC50 rises from 42.1 nM to 83 nM (2-fold).

First: Cc1ncc(F)cc1[C@@H](C)OC(=O)Nc1c(-c2ccc(NS(C)(=O)=O)cn2)nnn1C [Compound 112, (R)-1-(5-fluoro-2-methylpyridin-3-yl)ethyl (1-methyl-4-(5-(methylsulfonamido)pyridin-2-yl)-1H-1,2,3-triazol-5-yl)carbamate]
Second: C[C@@H](OC(=O)Nc1c(-c2ccc(NS(C)(=O)=O)cn2)nnn1C)c1cc(F)cnc1F [Compound 114, (R)-1-(2,5-difluoropyridin-3-yl)ethyl (1-methyl-4-(5-(methylsulfonamido)pyridin-2-yl)-1H-1,2,3-triazol-5-yl)carbamate]
The EC50 of the first is 2.2-fold higher: 106 nM for the first, 48.8 nM for the second.

Compared with `C[C@@H](OC(=O)Nc1c(-c2ccc(NS(C)(=O)=O)cn2)nnn1C)c1cccnc1Br` [Compound 116, (R)-1-(2-bromopyridin-3-yl)ethyl (1-methyl-4-(5-(methylsulfonamido)pyridin-2-yl)-1H-1,2,3-triazol-5-yl)carbamate], `C[C@@H](OC(=O)Nc1c(-c2ccc(NS(C)(=O)=O)cn2)nnn1C)c1csnc1Cl` [Compound 119, (R)-1-(3-chloroisothiazol-4-yl)ethyl (1-methyl-4-(5-(methylsulfonamido)pyridin-2-yl)-1H-1,2,3-triazol-5-yl)carbamate] is 2.6-fold lower in EC50: 129 nM for the first, 50.2 nM for the second.

First: C[C@@H](OC(=O)Nc1c(-c2ccc(NS(C)(=O)=O)cn2)nnn1C)c1cc(F)ncc1F [Compound 117, (R)-1-(2,5-difluoropyridin-4-yl)ethyl (1-methyl-4-(5-(methylsulfonamido)pyridin-2-yl)-1H-1,2,3-triazol-5-yl)carbamate]
Second: CC(OC(=O)Nc1c(-c2ccc(NS(C)(=O)=O)cn2)nnn1C)c1c(F)ccnc1Cl (stereo not shown) [Compound 121, 1-(2-chloro-4-fluoropyridin-3-yl)ethyl (1-methyl-4-(5-(methylsulfonamido)pyridin-2-yl)-1H-1,2,3-triazol-5-yl)carbamate]
The EC50 of the first is 2.1-fold lower: 218 nM for the first, 461 nM for the second.

First: CC(OC(=O)Nc1c(-c2ccc(NS(C)(=O)=O)cn2)nnn1C)c1c(F)cccc1Cl (stereo not shown) [Compound 120, 1-(2-chloro-6-fluorophenyl)ethyl (1-methyl-4-(5-(methylsulfonamido)pyridin-2-yl)-1H-1,2,3-triazol-5-yl)carbamate]
Second: Cc1nc(-c2nnn(C)c2NC(=O)OC(C)c2ncccc2Cl)ccc1NS(C)(=O)=O (stereo not shown) [Compound 131, 1-(3-chloropyridin-2-yl)ethyl (1-methyl-4-(6-methyl-5-(methylsulfonamido)pyridin-2-yl)-1H-1,2,3-triazol-5-yl)carbamate]
The EC50 of the first is 7.8-fold lower: 87 nM for the first, 675 nM for the second. The first is the more potent here.

Compared with `COc1ncccc1[C@@H](C)OC(=O)Nc1c(-c2ccc(NS(C)(=O)=O)c(C)n2)nnn1C` [Compound 122, (R)-1-(2-methoxypyridin-3-yl)ethyl (1-methyl-4-(6-methyl-5-(methylsulfonamido)pyridin-2-yl)-1H-1,2,3-triazol-5-yl)carbamate], `Cc1nc(-c2nnn(C)c2NC(=O)O[C@H](C)c2cccnc2F)ccc1NS(C)(=O)=O` [Compound 128, (R)-1-(2-fluoropyridin-3-yl)ethyl (1-methyl-4-(6-methyl-5-(methylsulfonamido)pyridin-2-yl)-1H-1,2,3-triazol-5-yl)carbamate] is 3.5-fold lower in EC50: 920 nM for the first, 265 nM for the second. The second is the more potent here.

First: Cc1nc(-c2nnn(C)c2NC(=O)O[C@H](C)c2cc(F)ncc2Cl)ccc1NS(C)(=O)=O [Compound 123, (R)-1-(5-chloro-2-fluoropyridin-4-yl)ethyl (1-methyl-4-(6-methyl-5-(methylsulfonamido)pyridin-2-yl)-1H-1,2,3-triazol-5-yl)carbamate]
Second: Cc1nc(-c2nnn(C)c2NC(=O)OC(C)c2cnc(F)cc2Cl)ccc1NS(C)(=O)=O (stereo not shown) [Compound 129, 1-(4-chloro-6-fluoropyridin-3-yl)ethyl (1-methyl-4-(6-methyl-5-(methylsulfonamido)pyridin-2-yl)-1H-1,2,3-triazol-5-yl)carbamate]
The EC50 of the first is 3.1-fold lower: 86.1 nM for the first, 271 nM for the second. The first is the more potent here.

`Cc1nc(-c2nnn(C)c2NC(=O)OC(C)c2cccnc2C(F)F)ccc1NS(C)(=O)=O` (stereo not shown) [Compound 124, 1-(2-(difluoromethyl)pyridin-3-yl)ethyl (1-methyl-4-(6-methyl-5-(methylsulfonamido)pyridin-2-yl)-1H-1,2,3-triazol-5-yl)carbamate] and `C=Cc1ncccc1[C@@H](C)OC(=O)Nc1c(-c2ccc(NS(C)(=O)=O)c(C)n2)nnn1C` [Compound 127, (R)-1-(2-vinylpyridin-3-yl)ethyl (1-methyl-4-(6-methyl-5-(methylsulfonamido)pyridin-2-yl)-1H-1,2,3-triazol-5-yl)carbamate] are within 1.5-fold of each other in EC50: 1080 nM for the first, 1420 nM for the second.

`Cc1nc(-c2nnn(C)c2NC(=O)O[C@H](C)c2cc(Br)cnc2F)ccc1NS(C)(=O)=O` [Compound 125, (R)-1-(5-bromo-2-fluoropyridin-3-yl)ethyl (1-methyl-4-(6-methyl-5-(methylsulfonamido)pyridin-2-yl)-1H-1,2,3-triazol-5-yl)carbamate] and `Cc1nc(-c2nnn(C)c2NC(=O)OC(C)c2cc(Br)cnc2Cl)ccc1NS(C)(=O)=O` (stereo not shown) [Compound 130, 1-(5-bromo-2-chloropyridin-3-yl)ethyl (1-methyl-4-(6-methyl-5-(methylsulfonamido)pyridin-2-yl)-1H-1,2,3-triazol-5-yl)carbamate] are within 1.5-fold of each other in EC50: 187 nM for the first, 272 nM for the second.

First: Cc1nc(-c2nnn(C)c2NC(=O)OC(C)c2cc(F)cnc2Br)ccc1NS(C)(=O)=O (stereo not shown) [Compound 126, 1-(2-bromo-5-fluoropyridin-3-yl)ethyl (1-methyl-4-(6-methyl-5-(methylsulfonamido)pyridin-2-yl)-1H-1,2,3-triazol-5-yl)carbamate]
Second: Cc1nc(-c2nnn(C)c2NC(=O)OC(C)c2ccncc2F)ccc1NS(C)(=O)=O (stereo not shown) [Compound 132, 1-(3-fluoropyridin-4-yl)ethyl (1-methyl-4-(6-methyl-5-(methylsulfonamido)pyridin-2-yl)-1H-1,2,3-triazol-5-yl)carbamate]
The EC50 of the first is 4.9-fold lower: 232 nM for the first, 1130 nM for the second.

`Cc1nc(-c2nnn(C)c2NC(=O)OC(C)c2cnc(Cl)nc2Cl)ccc1NS(C)(=O)=O` (stereo not shown) [Compound 133, 1-(2,4-dichloropyrimidin-5-yl)ethyl (1-methyl-4-(6-methyl-5-(methylsulfonamido)pyridin-2-yl)-1H-1,2,3-triazol-5-yl)carbamate] and `Cc1nc(-c2nnn(C)c2NC(=O)OC(C)c2cc(Cl)nnc2Cl)ccc1NS(C)(=O)=O` (stereo not shown) [Compound 134, 1-(3,6-dichloropyridazin-4-yl)ethyl (1-methyl-4-(6-methyl-5-(methylsulfonamido)pyridin-2-yl)-1H-1,2,3-triazol-5-yl)carbamate] are within 1.5-fold of each other in EC50: 1700 nM for the first, 1830 nM for the second.

With `Cc1nc(-c2nnn(C)c2NC(=O)O[C@H](C)c2ccnn2C)ccc1NS(C)(=O)=O` [Compound 135, (R)-1-(1-methyl-1H-pyrazol-5-yl)ethyl (1-methyl-4-(6-methyl-5-(methylsulfonamido)pyridin-2-yl)-1H-1,2,3-triazol-5-yl)carbamate] the EC50 was 2980 nM.
